Assay results from patent publication US11905284B2, “5,7-dihydro-pyrrolo-pyridine derivatives” (PFIZER INC., priority 2016, dated 2024).

Biological target: T1, Human M4 receptors (Homo sapiens, UniProt P08173)
T1 construct: expressed in transfected cells; host or cells: HEK293 cells with Promega GloSensor cAMP technology, stably expressing hM4
T1 sequence (P08173 1-479): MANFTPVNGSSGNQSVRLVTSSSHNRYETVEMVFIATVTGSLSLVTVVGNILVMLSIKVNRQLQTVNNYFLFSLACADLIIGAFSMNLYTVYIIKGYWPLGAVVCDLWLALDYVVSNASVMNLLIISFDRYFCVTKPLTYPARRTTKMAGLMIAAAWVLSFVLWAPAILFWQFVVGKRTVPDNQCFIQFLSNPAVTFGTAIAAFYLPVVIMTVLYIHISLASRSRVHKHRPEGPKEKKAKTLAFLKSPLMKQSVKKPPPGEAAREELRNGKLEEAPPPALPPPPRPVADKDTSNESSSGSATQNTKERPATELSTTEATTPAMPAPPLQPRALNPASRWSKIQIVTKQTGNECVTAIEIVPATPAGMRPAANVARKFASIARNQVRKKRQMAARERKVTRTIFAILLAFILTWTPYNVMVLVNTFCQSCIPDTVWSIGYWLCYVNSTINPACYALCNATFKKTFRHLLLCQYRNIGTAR
Assay: M4 PAM cAMP assay (GloSensor)
Format: cell-based
Details: for Emax: HEK293, read-out: M4 glosensor EC50 Mean Asymptote Maximum (%); for EC50: HEK293 GloSensor cells expressing hM4, with EC20 acetylcholine and isoproterenol, geometric mean of 2-4 determinations unless otherwise indicated
Experimental: The M4 PAM binding affinity for the compounds of the present invention was determined utilizing the following biological assay(s):
The M4 cAMP assay was designed to determine the potency and efficacy of muscarinic positive allosteric modulators (PAMs). Human M4 receptors were stably expressed in Human embryonic kidney (HEK293) cells expressed with the Promega GloSensor™ cAMP technology.
HEK293 GloSensor cells expressing hM4 cells were cultured in growth media containing DMEM with 10% FBS, 1% Penicillin/Streptomycin, 500 μg/mL G418, 200 μg/mL Hygomycin B, and 1% Glutamax. […] Plates were incubated at 37 degrees C. and 5% CO2 for use after 24 hours.
Compound Preparation for Agonist Screen:
Each compound was tested at 10 concentrations in duplicate per experiment. Compound plates are spotted with 0.2 μL/well agonist at 400 times the final assay concentration. Positive and negative controls for the compound alone agonist response was 10 μM acetylcholine (Sigma #A2661) and DMSO, respectively. EC20 of acetylcholine was also used to define PAM activities.
Promega GloSensor™ reagent (Promega #E1291) had previously been aliquotted. […] Stock solution was mixed. Culture media in cell plates was discarded, then replaced with 40 μL/well pre-warmed equilibration media, then incubated in the dark at room temperature for 2 hours. During the incubation, stimulation media containing agonist and EC20 acetylcholine was prepared. […] Compounds are now 5 times the final assay concentration. The plate was mixed using a plate agitator. At the end of the 2 hour GloSensor™ incubation, add 10 μL of the CO2-independent media containing agonist, EC20 acetylcholine and isoproterenol to the cell plate. Cell plate was then incubated for 10 minutes at room temperature, and then read using an EnVision plate reader (Perkin Elmer).
Data was exported from the EnVision plate reader. The percent effect for each well was determined using the mean values for the positive and negative controls on each plate for each read, specifically 100*(compound−negative control)/(positive control−negative control). Dose response curves were fitted to the compound percent effect data using a 4-parameter logistic fit model. Data was reported as EC50 and Emax, with the Emax as the maximum asymptote of the fitted dose response curve.

Structure (SMILES) | Emax [%] | EC50 [nM]
Cc1c(C(F)F)nc2c(c1C)CN(C(=O)CC1CN(c3ccnc(C(F)F)c3)C1)C2 [Example 53, 1-[2-(difluoromethyl)-3,4-dimethyl-5,7-dihydro-6H-pyrrolo[3,4-b]pyridin-6-yl]-2-{1-[2-(difluoromethyl)pyridin-4-yl]azetidin-3-yl}ethanone] | 104 | 38.6
Cc1cc(C)c2c(n1)CN(C(=O)CC1Cc3ccccc3C1)C2 [Example 56, 2-(2,3-dihydro-1H-inden-2-yl)-1-(2,4-dimethyl-5,7-dihydro-6H-pyrrolo[3,4-b]pyridin-6-yl)ethanone] | 71.8 | 209
Cc1cc(C)c2c(n1)CN(C(=O)OC1CN(c3nncs3)C1)C2 [Example 62, 1-(1,3,4-thiadiazol-2-yl)azetidin-3-yl 2,4-dimethyl-5,7-dihydro-6H-pyrrolo[3,4-b]pyridine-6-carboxylate] | 47 | 95.7
Cc1c(C(F)F)nc2c(c1C)CN(C(=O)OC1CN(c3ncns3)C1)C2 [Example 63, 1-(1,2,4-thiadiazol-5-yl)azetidin-3-yl 2-(difluoromethyl)-3,4-dimethyl-5,7-dihydro-6H-pyrrolo[3,4-b]pyridine-6-carboxylate] | 51.8 | 42.4
Cc1nc2c(c(C)c1C)CN(C(=O)OC1CN(c3ncns3)C1)C2 [Example 64, 1-(1,2,4-thiadiazol-5-yl)azetidin-3-yl 2,3,4-trimethyl-5,7-dihydro-6H-pyrrolo[3,4-b]pyridine-6-carboxylate] | 88.5 | 40.2
Cc1nc2c(c(C)c1C)CN(C(=O)OC1CN(c3nncs3)C1)C2 [Example 65, 1-(1,3,4-thiadiazol-2-yl)azetidin-3-yl 2,3,4-trimethyl-5,7-dihydro-6H-pyrrolo[3,4-b]pyridine-6-carboxylate] | 88.2 | 62.6
COCc1nc2c(c(C)c1Cl)CN(C(=O)OC1CN(c3cccnc3)C1)C2 [Example 66, 1-(pyridin-3-yl)azetidin-3-yl 3-chloro-2-(methoxymethyl)-4-methyl-5,7-dihydro-6H-pyrrolo[3,4-b]pyridine-6-carboxylate] | 163 | 52.3
Cc1nc2c(c(C)c1Cl)CN(C(=O)OC1CN(c3ncns3)C1)C2 [Example 67, 1-(1,2,4-thiadiazol-5-yl)azetidin-3-yl 3-chloro-2,4-dimethyl-5,7-dihydro-6H-pyrrolo[3,4-b]pyridine-6-carboxylate] | 98.6 | 18.5
Cc1cc(C)c2c(n1)CN(C(=O)CC1CN(c3ccc(C4(C)COC4)cc3)C1)C2 [Example 68, 1-(2,4-dimethyl-5,7-dihydro-6H-pyrrolo[3,4-b]pyridin-6-yl)-2-{1-[4-(3-methyloxetan-3-yl)phenyl]azetidin-3-yl}ethanone] | 99.4 | 485
COc1ccc(C#N)cc1N1CC(CC(=O)N2Cc3nc(C)cc(C)c3C2)C1 [Example 69, 3-{3-[2-(2,4-dimethyl-5,7-dihydro-6H-pyrrolo[3,4-b]pyridin-6-yl)-2-oxoethyl]azetidin-1-yl}-4-methoxybenzonitrile] | 41.5 | 1360
Cc1cc(C)c2c(n1)CN(C(=O)CC1CN(c3ccc(C(=O)N(C)C)cc3)C1)C2 [Example 70, 4-{3-[2-(2,4-dimethyl-5,7-dihydro-6H-pyrrolo[3,4-b]pyridin-6-yl)-2-oxoethyl]azetidin-1-yl}-N,N-dimethylbenzamide] | 95 | 184

Results, then the compound that gave them:

Emax [%] | EC50 [nM] | Structure (SMILES)
90.5 | 195 | Cc1cc(C)c2c(n1)CN(C(=O)CC1CN(c3ccc(CO)cc3)C1)C2 [Example 71, 1-(2,4-dimethyl-5,7-dihydro-6H-pyrrolo[3,4-b]pyridin-6-yl)-2-{1-[4-(hydroxymethyl)phenyl]azetidin-3-yl}ethanone]
90.6 | 537 | Cc1cc(C)c2c(n1)CN(C(=O)CC1CN(c3ccc(C4CC4)cc3)C1)C2 [Example 72, 2-[1-(4-cyclopropylphenyl)azetidin-3-yl]-1-(2,4-dimethyl-5,7-dihydro-6H-pyrrolo[3,4-b]pyridin-6-yl)ethanone]
95.3 | 90.5 | Cc1cc(C)c2c(n1)CN(C(=O)CC1CN(c3ccc(C(O)C4CC4)cc3)C1)C2 (centres unmarked) [Example 73, 2-(1-{4-[cyclopropyl(hydroxy)methyl]phenyl}azetidin-3-yl)-1-(2,4-dimethyl-5,7-dihydro-6H-pyrrolo[3,4-b]pyridin-6-yl)ethanone]
84.4 | 460 | COc1ccc(N2CC(CC(=O)N3Cc4nc(C)cc(C)c4C3)C2)cc1CC#N [Example 74, (5-{3-[2-(2,4-dimethyl-5,7-dihydro-6H-pyrrolo[3,4-b]pyridin-6-yl)-2-oxoethyl]azetidin-1-yl}-2-methoxyphenyl)acetonitrile]
89.2 | 105 | CNC(=O)c1ccc(N2CC(CC(=O)N3Cc4nc(C)cc(C)c4C3)C2)cc1 [Example 75, 4-{3-[2-(2,4-dimethyl-5,7-dihydro-6H-pyrrolo[3,4-b]pyridin-6-yl)-2-oxoethyl]azetidin-1-yl}-N-methylbenzamide]
